According to patent publication US20230270753A1, “COMBINATIONS OF GABAA ALPHA 5 AGONISTS AND SV2A INHIBITORS AND METHODS OF USING IN THE TREATMENT OF COGNITIVE IMPAIRMENT” (AGENEBIO, INC., priority 2020, published 2023):
“Also recorded” adds a separate entry of the source. Where two headings read alike, the source gives them in different places.

Legend:
[1] = format: physicochemical; conditions: solvent-mediated slurries, ambient temperature (Form E also 55° C. and 77° C.)
Procedure: Interconversion experiments were performed to identify the most thermodynamically stable anhydrous form of Compound 1 (Table 19). […] The choice of solvent affects the kinetics of polymorph conversion and not the thermodynamic relationship between polymorphic forms.
Various combinations of Forms B, E, F, and Material D were slurried with Form A at ambient and elevated temperatures (for experiments involving Form E). Different solvent systems were used and included a variety of water activities. Saturated solutions were generated and then added to the mixtures composed of approximately equivalent quantities of the forms. The mixtures were slurried for a particular duration of time and the solids harvested and analyzed by XRPD.

[2] = format: physicochemical
Procedure: XRPD patterns were collected with a PANalytical X'Pert PRO MPD or a PANalytical Empyrean diffractometer using an incident beam of Cu radiation produced using an Optix long, fine-focus source. An elliptically graded multilayer mirror was used to focus Cu Kα X-rays through the specimen and onto the detector. Prior to the analysis, a silicon specimen (NIST SRM 640e) was analyzed to verify the observed position of the Si 111 peak is consistent with the NIST-certified position. A specimen of the sample was sandwiched between 3-μm-thick films and analyzed in transmission geometry. A beam-stop, short antiscatter extension, and antiscatter knife edge were used to minimize the background generated by air. Soller slits for the incident and diffracted beams were used to minimize broadening from axial divergence. Diffraction patterns were collected using a scanning position-sensitive detector (X'Celerator) located 240 mm from the specimen and Data Collector software v. 5.5.

[3] = Dynamic vapor sorption (DVS); format: physicochemical; conditions: for hygroscopicity class: DVS isotherm; for form of the material recovered from the DVS experiment by XRPD: post DVS
Procedure: Dynamic vapor sorption data was collected on a Surface Measurement System DVS Intrinsic instrument. The samples were not dried prior to analysis. Sorption and desorption data were collected over a range from 5% to 95% RH in 10% RH increments under a nitrogen purge. The equilibrium criteria used for the analyses were 0.001 dm/dt weight change in 5 minutes with a minimum step time of 30 minutes and maximum equilibration time of 180 minutes with a 3-minute data logging interval. Data were not corrected for the initial moisture content of the sample. The samples were identified as having low, limited or significant hygroscopicity based on the definitions in the below table.

[4] = tested on: Aged-Impaired rats (AI rats); assay: Radial Arm Maze task, 2-hr delay, acute brivaracetam or seletracetam (Example 4); format: in vivo, rat; conditions: doses 0.0625-4 mg/kg i.p., 30-40 min prior to test; repeated measures ANOVA
Source text: All rats were screened in a standardized assessment of spatial cognition prior to the studies with experimental treatments. That background assessment used a well-established Morris Water Maze protocol. The MWM protocol was substantially the same as the one described in Example 1. See, also, Gallagher et al., Behav. Neurosci. 107:618-626, (1993). Briefly, the rats were trained for eight days (three trials per day) to locate a camouflaged escape platform that remained at the same location throughout training in a water maze. Every sixth trial consisted of a probe trial (free swim with no escape platform) that served to assess the development of a spatially localized search for the escape platform. During these probe trials, a learning index was generated from the proximity of the rat to the escape platform and was used to define impairment in the aged rats. The learning index is the sum of weighted proximity scores obtained during probe trials, with low scores reflecting a search near the escape platform and high scores reflecting searches farther away from the platform (Gallagher et al, 1993). Cue training (visible escape platform) occurred on the last day of training to test for sensorimotor and motivational factors independent of spatial learning. […]

[5] = tested on: memory-impaired aged rats; assay: Water maze after chronic brivaracetam by osmotic mini-pump (Example 4); format: in vivo, rat; conditions: brivaracetam 2 mg/kg/day by osmotic mini-pump, 14 days, probe test
Procedure: The radial arm maze experiments used acute administration of seletracetam (0-4 mg/kg), brivaracetam (0-4 mg/kg), or saline vehicle given by intraperitoneal injection (in a volume of 1 ml/kg) 30-40 min prior to test sessions.
Rats were trained and tested in a novel water maze environment to assess the effect of drug treatment. The water maze used here was housed in a different building and was surrounded by curtains with a novel set of patterns relative to the maze used for initial assessment of cognitive status. The training protocol consisted of 6 trials per day for 2 days to locate a submerged escape platform. On each trial, a rat was released in the maze from one of four equally spaced starting positions around the perimeter of the pool. The starting position varied from trial to trial. […] The rat was then removed from the platform and placed in a holding cage for another 40 s before the next trial. Approximately 24 hr after the last training trial, a probe test in the absence of the escape platform was given to assess spatial memory.

[6] = Differential scanning calorimetry / thermogravimetry; format: physicochemical; conditions: DSC 10° C./min
Procedure: DSC was performed using a Mettler-Toledo DSC3+ differential scanning calorimeter. A tau lag adjustment is performed with indium, tin, and zinc. The temperature and enthalpy are adjusted with octane, phenyl salicylate, indium, tin and zinc. The adjustment is then verified with octane, phenyl salicylate, indium, tin, and zinc. The sample was placed into a hermetically sealed aluminum DSC pan, the weight was accurately recorded, and the sample was inserted into the DSC cell. A weighed aluminum pan configured as the sample pan was placed on the reference side of the cell. The pan lid was pierced prior to sample analysis. The samples were analyzed from −25° C. to 250° C. at 10° C./min.
Thermogravimetric analyses were performed using a Mettler-Toledo TGA/DSC3+ analyzer. Temperature calibration was performed using calcium oxalate, indium, tin, and zinc. The sample was placed in an aluminum pan. The pan was hermetically sealed, the lid was pierced, and the pan was then inserted into the TG furnace. A weighed aluminum pan configured as the sample pan was placed on the reference platform. The furnace was heated under nitrogen. Samples were analyzed from 25° C. to 350° C. at 10° C./min.

MAM-treated rats = conditions: cited from earlier work

## COCc1nnc2n1Cc1c(C#Cc3cnc(OC)s3)ncn1-c1ccc(Cl)cc1-2 [Material D]
[1]
  relative thermodynamic stability between crystalline forms: metastable relative to Form A
[2]; 7 weeks of ambient storage, mixture with Form A
  stability of the form on ambient storage: Material D still remained

## COCc1nnc2n1Cc1c(C#Cc3cnc(OC)s3)ncn1-c1ccc(Cl)cc1-2 [Form A]
[3]; 5% to 95% RH
  hygroscopicity class: limited hygroscopicity; also recorded: low hygroscopicity
[3]; DVS, 5% to 95% RH
  weight change through the sorption/desorption cycle: ~0.3%
[3]
  form of the material recovered from the DVS experiment by XRPD: identified as the same as the starting material
[1]
  relative thermodynamic stability between crystalline forms: more thermodynamically stable than Form B and Material D at ambient temperature and Form E at ambient temperature, 55° C., and 77 °C
[1]; listed as Form A of Compound 1
  relative thermodynamic stability between crystalline forms: superior stability

## CCC[C@@H]1CC(=O)N([C@@H](CC)C(N)=O)C1 [brivaracetam, (2S)-2-[(4R)-2-oxo-4-propylpyrrolidin-1-yl]butanamide]
[4]
  number of errors in the retention phase after the 2-hr delay: significant effect as a function of dose
[5]
  time in the target annulus vs vehicle-treated rats: significantly more time in the target annulus
  time in the target quadrant vs vehicle-treated rats: significantly more time in the target quadrant
[5]; n=3/group
  spatial bias for the target quadrant compared to the other control quadrants: significant spatial bias

## COCc1nnc2n1Cc1c(C#Cc3cnc(OC)s3)ncn1-c1ccc(Cl)cc1-2 [Form E]
[1]
  relative thermodynamic stability between crystalline forms: metastable relative to Form A

## CC[C@@H](C(N)=O)N1C[C@H](C=C(F)F)CC1=O [seletracetam, (2S)-2-[(4S)-4-(2,2-difluoroethenyl)-2-oxopyrrolidin-1-yl]butanamide]
[4]
  number of errors in the retention phase after the 2-hr delay: significant effect as a function of dose

## COCc1nnc2n1Cc1c(C#Cc3cnc(OC)s3)ncn1-c1ccc(Cl)cc1-2 [Form B]
[6]
  onset of DSC exotherm due to decomposition: about 190 °C
[1]
  relative thermodynamic stability between crystalline forms: metastable relative to Form A

## NC1=N[C@H](O)[C@H]2[C@H]3O[C@]4(O)O[C@@H]([C@@H](O)[C@@]2(N1)[C@@H]4O)[C@]3(O)CO [tetrodotoxin]
MAM-treated rats; rat, in vivo
  DA neuron population activity: completely reversed the elevated DA neuron population activity
  amphetamine-induced locomotor behavior: normalized the augmented amphetamine-induced locomotor behavior

## COCc1nnc2n1Cc1c(C#Cc3cnc(OC)s3)ncn1-c1ccc(Cl)cc1-2 [Form F]
[3]; 5% to 95% RH
  hygroscopicity class: limited hygroscopicity
[3]; DVS, 5-95% RH
  weight gain on sorption: 1.8%
[3]; DVS, with significant hysteresis
  weight loss upon desorption: 1.5%
[3]
  form of the material recovered from the DVS experiment by XRPD: still Form F
[6]
  onset of DSC exotherm due to decomposition: above 120 °C
[2]; 5 days under vacuum at ambient temperature
  stability of the form under vacuum: remain unchanged

## C#Cc1ccc2c(c1)C(c1ccccc1F)=N[C@H](C)c1c(C(=O)OCC)ncn1-2 [SH-053-2′F—R—CH3]
MAM-treated rats; MAM rats, administered systemically or infused into the ventral HPC
  number of spontaneously active DA neurons in the ventral tegmental area (VTA): reduces the number of spontaneously active DA neurons
MAM-treated rats; MAM-treated rats
  locomotor response to amphetamine: is reduced

## COCc1nnc2n1Cc1c(C#Cc3cnc(OC)s3)ncn1-c1ccc(Cl)cc1-2 [Form C]
[6]
  onset of DSC exotherm due to decomposition: 190 °C
[2]; 9 weeks under ambient conditions
  stability of the form on ambient storage: remain unchanged
[2]; overnight exposure to 80° C.
  stability of the form on heating: desolvate to Form B
